Data: ChEMBL document CHEMBL5346970, “Targeting EP2 Receptor for Drug Discovery: Strengths, Weaknesses, Opportunities, and Threats (SWOT) Analysis” (J Med Chem, 2023)
pIC50: −log10 of the molar value.

Tests used:
SK-N-AS [1] = assay: Antitumor activity against human SK-N-AS cells xenografted in athymic nude mouse assessed as reduction in tumor proliferation at 10 mg/kg, ip administered once daily for 18 days by Ki-67 staining based immunohistochemistry analysis relative to control; type: functional; design: scale not given: the % may be the effect or the level left; details: time 18 day
SK-N-AS [2] = assay: Antitumor activity against human SK-N-AS cells xenografted in athymic nude mouse assessed as reduction in tumor proliferation at 20 mg/kg, ip administered once daily for 18 days by Ki-67 staining based immunohistochemistry analysis relative to control; type: functional; design: scale not given: the % may be the effect or the level left; details: time 18 day
[3] = target: Prostaglandin E2 receptor EP2 subtype (Mus musculus, UniProt Q62053); assay: Antagonist activity at EP2 receptor in C57BL/6 mouse trachea assessed as inhibition of PGE2-induced relaxation in rings of trachea pretreated for 30 mins in presence of carbachol followed by PGE2 relaxation; type: functional, tissue-based
[4] = Terminal half life in Sprague-Dawley rat at 0.1 ml/kg, po; type: ADME; details: in vivo, read-out: beta t1/2 (converted)
[5] = Oral bioavailability in Sprague-Dawley rat at 0.1 ml/kg; type: ADME, organism-based; details: in vivo

Sequence of Prostaglandin E2 receptor EP2 subtype (Q62053 whole entry): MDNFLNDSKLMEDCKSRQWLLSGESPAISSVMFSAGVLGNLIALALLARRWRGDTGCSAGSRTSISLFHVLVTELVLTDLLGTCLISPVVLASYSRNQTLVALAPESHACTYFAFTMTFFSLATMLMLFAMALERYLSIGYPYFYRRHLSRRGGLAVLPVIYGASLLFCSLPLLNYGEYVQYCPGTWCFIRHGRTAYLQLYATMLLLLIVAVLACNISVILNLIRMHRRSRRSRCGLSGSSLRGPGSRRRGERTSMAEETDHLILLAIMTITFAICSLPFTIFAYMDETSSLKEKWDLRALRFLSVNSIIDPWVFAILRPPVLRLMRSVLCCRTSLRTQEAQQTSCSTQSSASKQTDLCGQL

Row | pIC50 [3] | half-life [4] [h] | bioavailability [5] [%] | SMILES | Activity (SK-N-AS [1]) [%] | Activity (SK-N-AS [2]) [%]
1 |  |  |  | CCc1nnc(NS(=O)(=O)c2ccc(NC(=S)NC(=O)/C=C/c3ccc(F)cc3)cc2)s1 | 25 | 55
2 | 8.57 | 8.8 | 78 | COc1ccc2cc(OCC3(C(=O)O)CN(C(=O)c4ccc(F)cc4)C3)ccc2c1 [PF-04418948] |  | 
